Where two headings read alike, the source gives them in different places.
Legend:
Format in all cases: in vivo
[1] = tested on: Amaranthus retroflexus (AMARE); assay: Pre-emergence herbicidal action against AMARE; settings: visual scoring after about 3 weeks vs untreated controls
Description: (§1) Seeds of monocotyledonous and dicotyledonous weed plants and crop plants are placed in plastic or organic planting pots and covered with soil. The compounds of the invention, formulated in the form of wettable powders (WP) or as emulsion concentrates (EC), are then applied to the surface of the covering soil as aqueous suspension or emulsion with addition of 0.5% additive at a water application rate equivalent to 600 l/ha. After the treatment, the pots are placed in a greenhouse and kept under good growth conditions for the trial plants. After about 3 weeks, the effect of the preparations is scored visually in comparison with untreated controls as percentages. For example, 100% activity=the plants have died, 0% activity=like control plants.
(§2) Tables A1 to A13 below show the effects of selected compounds of the general formula (I) on various harmful plants and at an application rate corresponding to 320 g/ha or lower, which were obtained by the experimental procedure mentioned above. The appendices “a”, “b” and “c” give differentiation by dosage used with otherwise the same harmful plants tested.

[2] = tested on: Echinochloa crus-galli (ECHCG); assay: Pre-emergence herbicidal action against ECHCG; settings: dosage 320 g/ha
Description: as §1, §2

Avena fatua (AVEFA) [3] = assay: Pre-emergence herbicidal action against AVEFA; settings: visual scoring after about 3 weeks vs untreated controls
Description: as §1, §2

[4] = tested on: Alopecurus myosuroides (ALOMY); assay: Post-emergence herbicidal action against ALOMY; settings: visual rating about 3 weeks after treatment vs untreated controls (100% = plants have died, 0% = like control plants)
Protocol: (§3) Seeds of monocotyledonous and dicotyledonous weeds and crop plants are placed in sandy loam in plastic or organic planting pots, covered with soil and cultivated in a greenhouse under controlled growth conditions. 2 to 3 weeks after sowing, the test plants are treated at the one-leaf stage. The compounds of the invention, formulated in the form of wettable powders (WP) or as emulsion concentrates (EC), are then sprayed onto the green parts of the plants as aqueous suspension or emulsion with addition of 0.5% additive at a water application rate of 600 l/ha (converted). After the test plants have been kept in the greenhouse under optimum growth conditions for about 3 weeks, the activity of the preparations is rated visually in comparison to untreated controls. For example, 100% activity=the plants have died, 0% activity=like control plants.
(§4) Tables B1 to B13 below show the effects of selected compounds of the general formula (I) according to Table 1 on various harmful plants and at an application rate corresponding to 320 g/ha or lower, which were obtained by the experimental procedure mentioned above. The appendices “a”, “b” and “c” give differentiation by dosage used with otherwise the same harmful plants tested.

[5] = tested on: Alopecurus myosuroides (ALOMY); assay: Pre-emergence herbicidal action against ALOMY; settings: scored visually after about 3 weeks, 100% = plants have died
Description: as §1, §2

[6] = tested on: Pharbitis purpurea (PHBPU); assay: Pre-emergence herbicidal action against PHBPU; settings: dosage 320 g/ha
Description: as §1, §2

Lolium rigidum (LOLRI) [7] = assay: Pre-emergence herbicidal action against LOLRI
Description: as §1, §2

[8] = tested on: Amaranthus retroflexus (AMARE); assay: Post-emergence herbicidal action against AMARE
Protocol: as §3, §4

Viola tricolor (VIOTR) [9] = assay: Pre-emergence herbicidal action against VIOTR
Description: as §1, §2

[10] = tested on: Polygonum convolvulus (POLCO); assay: Pre-emergence herbicidal action against POLCO
Description: as §1, §2

Setaria viridis (SETVI) [11] = assay: Pre-emergence herbicidal action against SETVI
Description: as §1, §2

Zea mays (ZEAMX) = settings: for Post-emergence action against ZEAMX in % (crop plant compatibility): 20 g/ha, effect in comparison to untreated controls; for Post-emergence action against ZEAMX in %: crop plant compatibility, 80 g/ha, effect vs untreated controls
Protocol: as §3
(§5) The observed effects on selected crop plants are reported here in comparison to the untreated controls (values in %). The appendices “a”, “b” and “c” give differentiation by dosage used with otherwise the same crop plants tested.

Oryza sativa (ORYSA) = settings: crop plant compatibility
Protocol: as §3, §5

[12] = tested on: Echinochloa crus-galli (ECHCG); assay: Post-emergence herbicidal action against ECHCG
Protocol: as §3, §4

[13] = tested on: Matricaria inodora (MATIN); assay: Pre-emergence herbicidal action against MATIN; settings: dosage 320 g/ha
Description: as §1, §2

[14] = tested on: Verconica persica (VERPE); assay: Pre-emergence herbicidal action against VERPE
Description: as §1, §2

Setaria viridis (SETVI) [15] = assay: Post-emergence herbicidal action against SETVI
Protocol: as §3, §4

Avena fatua (AVEFA) [16] = assay: Post-emergence herbicidal action against AVEFA; settings: visual rating about 3 weeks after treatment
Protocol: as §3, §4

[17] = tested on: Abutilon theophrasti (ABUTH); assay: Post-emergence herbicidal action against ABUTH; settings: visual rating about 3 weeks after treatment vs untreated controls (100% = plants have died, 0% = like control plants)
Protocol: as §3, §4

Lolium rigidum (LOLRI) [18] = assay: Post-emergence herbicidal action against LOLRI
Protocol: as §3, §4

Viola tricolor (VIOTR) [19] = assay: Post-emergence herbicidal action against VIOTR
Protocol: as §3, §4

[20] = tested on: Verconica persica (VERPE); assay: Post-emergence herbicidal action against VERPE
Protocol: as §3, §4

[21] = tested on: Polygonum convolvulus (POLCO); assay: Post-emergence herbicidal action against POLCO
Protocol: as §3, §4

[22] = tested on: Pharbitis purpurea (PHBPU); assay: Post-emergence herbicidal action against PHBPU
Protocol: as §3, §4

[23] = 80 g/ha, visual rating about 3 weeks after treatment vs untreated controls (100% = plants have died, 0% = like control plants)
[24] = 20 g/ha, effect vs untreated controls
[25] = 320 g/ha, visual rating about 3 weeks after treatment
[26] = 80 g/ha, effect in comparison to untreated controls
[27] = 320 g/ha, effect in comparison to untreated controls

Row | SMILES | Pre-emergence action against AMARE in % ([1]; 80 g/ha) [%] | Pre-emergence action against AMARE in % ([1]; 320 g/ha) [%] | Pre-emergence action against ECHCG in % [2] [%] | Pre-emergence action against AVEFA in % (Avena fatua (AVEFA) [3]; 320 g/ha) [%] | Post-emergence action against ALOMY in % ([4]; 80 g/ha) [%] | Pre-emergence action against ALOMY ([5]; 80 g/ha) [%] | Pre-emergence action against ALOMY ([5]; 320 g/ha) [%] | Pre-emergence action against PHBPU in % [6] [%] | Pre-emergence action against LOLRI in % (Lolium rigidum (LOLRI) [7]; dosage 80 g/ha) [%] | Pre-emergence action against LOLRI in % (Lolium rigidum (LOLRI) [7]; dosage 320 g/ha) [%] | Post-emergence action against AMARE in % [8, 23] [%] | Pre-emergence action against VIOTR in % (Viola tricolor (VIOTR) [9]; 320 g/ha, Viola tricolor) [%] | Pre-emergence action against VIOTR in % (Viola tricolor (VIOTR) [9]; dosage 80 g/ha) [%] | Pre-emergence action against POLCO in % ([10]; dosage 320 g/ha) [%] | Pre-emergence action against SETVI in % (Setaria viridis (SETVI) [11]; dosage 80 g/ha) [%] | Pre-emergence action against SETVI in % (Setaria viridis (SETVI) [11]; dosage 320 g/ha) [%] | Post-emergence action against ZEAMX in % (Zea mays (ZEAMX)) [%] | Pre-emergence action against VERPE in % ([14]; dosage 320 g/ha) [%] | Post-emergence action against AVEFA in % (Avena fatua (AVEFA) [16]; 80 g/ha) [%] | Post-emergence action against ORYSA in % (Oryza sativa (ORYSA); [26]) [%] | also measured
1 | O=C(O)COc1nn(-c2ncccc2F)c(-c2ccc(F)nc2)c1C1CC1 [Example I-43] | 80 | 90 | 100 | 100 | 90 | 100 | 100 | 80 | 90 | 100 | 80 | 100 | 100 | 80 | 100 | 100 | 10 | 90 | 90 | – | Post-emergence action against ZEAMX in % (crop plant compatibility) (Zea mays (ZEAMX)): 10%; Post-emergence action against ORYSA in % (Oryza sativa (ORYSA); [24]): 10%; Post-emergence action against ECHCG in % ([12]; dosage 80 g/ha): 90%; Pre-emergence action against MATIN in % [13]: 80%; Post-emergence action against SETVI in % (Setaria viridis (SETVI) [15]; dosage 80 g/ha): 90%
2 | COC(=O)C(C)NC(=O)[C@@H](C)Oc1nn(-c2ccccn2)c(-c2ccc(F)nc2)c1Cl (stereo partly shown) [Example I-358] | 80 | 100 | 100 | 80 | 90 | 80 | 100 | 80 | 100 | 100 | – | 100 | 80 | 90 | – | 100 | 0 | – | 90 | 0 | Post-emergence action against ABUTH in % ([17]; 320 g/ha): 80%; Post-emergence action against ALOMY in % ([4]; 320 g/ha): 90%; Post-emergence action against LOLRI in % (Lolium rigidum (LOLRI) [18]; dosage 80 g/ha): 90%; Post-emergence action against LOLRI in % (Lolium rigidum (LOLRI) [18]; dosage 320 g/ha): 90%; Post-emergence action against AMARE in % [8, 25]: 90%; Pre-emergence action against POLCO in % ([10]; dosage 80 g/ha): 80%; Post-emergence action against ORYSA in % (Oryza sativa (ORYSA); [27]): 0%; Post-emergence action against ECHCG in % ([12]; dosage 320 g/ha): 90%; Post-emergence action against VIOTR in % (Viola tricolor (VIOTR) [19]; 80 g/ha): 90%; Post-emergence action against VIOTR in % (Viola tricolor (VIOTR) [19]; 320 g/ha): 90%; Post-emergence action against VERPE in % ([20]; 320 g/ha, VERPE): 80%; Post-emergence action against SETVI in % (Setaria viridis (SETVI) [15]; dosage 320 g/ha): 90%; Post-emergence action against POLCO in % ([21]; dosage 80 g/ha): 90%; Post-emergence action against POLCO in % ([21]; dosage 320 g/ha): 90%; Post-emergence action against AVEFA in % (Avena fatua (AVEFA) [16]; 320 g/ha): 90%
3 | CCOC(=O)C(C)Oc1nn(-c2ccccn2)c(-c2ccc(F)nc2)c1Br (stereo not shown) [Example I-102] | 80 | 90 | – | 90 | 90 | 100 | 100 | 80 | 80 | 100 | 80 | 100 | 90 | 90 | 90 | 100 | 20 | 80 | 90 | 0 | Post-emergence action against ABUTH in % ([17]; 80 g/ha): 80%; Post-emergence action against LOLRI in % (Lolium rigidum (LOLRI) [18]; dosage 80 g/ha): 90%; Post-emergence action against ZEAMX in % (crop plant compatibility) (Zea mays (ZEAMX)): 0%; Post-emergence action against ORYSA in % (Oryza sativa (ORYSA); [24]): 0%; Post-emergence action against POLCO in % ([21]; dosage 80 g/ha): 90%
4 | C[C@H](NC(=O)COc1nn(-c2ccccn2)c(-c2cncc(F)c2)c1Br)C(=O)O [Example I-80] | 90 | 90 | 100 | 90 | – | 100 | 100 | 90 | – | 100 | 80 | 90 | – | 90 | 90 | 100 | 20 | 90 | 80 | 20 | Post-emergence action against ALOMY in % ([4]; 320 g/ha): 90%; Post-emergence action against PHBPU in % ([22]; dosage 80 g/ha): 80%; Post-emergence action against PHBPU in % ([22]; dosage 320 g/ha): 80%; Post-emergence action against AMARE in % [8, 25]: 80%; Post-emergence action against ORYSA in % (Oryza sativa (ORYSA); [27]): 20%; Post-emergence action against ECHCG in % ([12]; dosage 80 g/ha): 80%; Post-emergence action against ECHCG in % ([12]; dosage 320 g/ha): 80%; Pre-emergence action against MATIN in % [13]: 90%; Post-emergence action against VERPE in % ([20]; 320 g/ha, VERPE): 80%; Post-emergence action against SETVI in % (Setaria viridis (SETVI) [15]; dosage 320 g/ha): 80%; Post-emergence action against POLCO in % ([21]; dosage 80 g/ha): 80%; Post-emergence action against POLCO in % ([21]; dosage 320 g/ha): 80%; Post-emergence action against AVEFA in % (Avena fatua (AVEFA) [16]; 320 g/ha): 80%
5 | CCOC(=O)[C@@H](C)Oc1nn(-c2ncccc2F)c(-c2ccc(F)nc2)c1Cl [Example I-32] | 90 | 100 | 100 | 100 | 90 | 90 | 100 | 80 | 90 | 100 | – | 100 | 100 | 90 | 100 | 100 | – | 100 | 90 | 0 | Pre-emergence action against AVEFA in % (Avena fatua (AVEFA) [3]; 80 g/ha): 90%; Post-emergence action against PHBPU in % ([22]; dosage 80 g/ha): 80%; Post-emergence action against LOLRI in % (Lolium rigidum (LOLRI) [18]; dosage 80 g/ha): 90%; Pre-emergence action against POLCO in % ([10]; dosage 80 g/ha): 90%; Post-emergence action against ZEAMX in % (crop plant compatibility) (Zea mays (ZEAMX)): 20%; Post-emergence action against ORYSA in % (Oryza sativa (ORYSA); [24]): 0%; Post-emergence action against ECHCG in % ([12]; dosage 80 g/ha): 80%; Post-emergence action against VIOTR in % (Viola tricolor (VIOTR) [19]; 80 g/ha): 80%; Pre-emergence action against MATIN in % [13]: 90%; Post-emergence action against VERPE in % ([20]; dosage 80 g/ha): 80%; Pre-emergence action against VERPE in % ([14]; dosage 80 g/ha): 80%

Reference: patent publication US20240041042A1, “1-(PYRIDYL)-5-AZINYLPYRAZOLE DERIVATIVES, AND THEIR USE FOR CONTROL OF UNDESIRED PLANT GROWTH” (Bayer Aktiengesellschaft, priority 2020, published 2024)
